Experimental findings from patent US20260234207A1, “Keratin YK93-8, and Preparation Method Therefor, Pharmaceutical Composition Thereof and Use Thereof” (INSTITUTE OF MATERIA MEDICA, CHINESE ACADEMY OF MEDICAL …, priority 2022, published 2026) are described below.

Structures can show the parent of a compound that is named as a salt. Where two headings read alike, the source gives them in different places.

Data set [1] deals with acetic acid-induced writhing of mice. Description: Pharmacodynamic test on mouse pain model (acetic acid-induced writhing). The following applies: 1% acetic acid intraperitoneally, writhing within 15 minutes. Format: in vivo, Male Kunming mice. As to the method: • Animals: Male Kunming mice; • Drugs: Tramadol Hydrochloride Sustained Release Tablets, Glacial acetic acid, YK93-8; • Instruments: electronic balance, timer • Experiment grouping: • Normal control group; • Positive control group: Tramadol Hydrochloride group; • Protein YK93-8, (0.5 g/kg) group. • Method:
Mice in the YK93-8 (0.5 g/kg) group were administered by gavage, while mice in the model group were given an equal volume of CMC-Na once a day for 7 consecutive days. 30 minutes after the last administration, 1% acetic acid was administered intraperitoneally, and the writhing times of mice within 15 minutes was recorded, and the inhibition rate of drug-induced writhing reaction was calculated. The observation criteria were concave abdominal cavity, extended hind limbs, and raised buttocks.
The inhibition rate was calculated by (Mean number of writhing reactions in the normal control group−Mean number of writhing reactions in the treatment group)/Mean number of writhing reactions in the normal control group *100%.

A further data set deals with EL-4 lymphoma. The protocol: • Animals: Male C57BL/6J mice • Drugs: Cyclophosphamide for injection (CTX), YK93-8 • Instruments: electronic balance, Five classified blood cell analyser • Experiment grouping: • Normal control group; • Positive control group: cyclophosphamide (100 mg/kg); • Protein YK93-8, (2 g/kg) group. • Method:
Subcutaneous inoculation of EL-4 cell suspension to replicate a mouse lymphoma model: The EL-4 tumor tissue was ground into a suspension using a glass homogenizer, the tumor suspension was aspirated with a syringe, the number of live cells was calculated, the cell concentration was adjusted to 2.0*10^6/ml with physiological saline, and then the suspension was injected into the left armpit of mice with 0.2 ml/mouse. On the next day, mice were randomly divided into a normal control group, a cyclophosphamide (100 mg/kg) group, and a YK93-8 (2 g/kg) group. Cyclophosphamide was injected intraperitoneally for single time, mice in the YK93-8 (2 g/kg) group were orally administered by gavage daily for 13 consecutive days, while mice in the normal control group were administered orally with an equal volume of sodium carboxymethyl cellulose. On the day of treatment, weight was measured, 20 μl of blood was obtained from the orbital blood and the routine blood analysis was performed. The tumor blocks were stripped, weighed and photographed, and the tumor suppression rate was calculated.
(§1) The tumor suppression rate [(The average weight of the tumor in the normal control group—the average weight of the tumor in the experimental group)/The average weight of the tumor in the normal control group×100%] and average value, standard deviation and standard errors of tumor weight were calculated.

The test system of another data set is B16F10 melanoma. The protocol:
• Animals: female C57BL/6J mice; • Drugs: Cyclophosphamide for injection (CTX), YK93-8 • Instruments: electronic balance, Five classified blood cell analyser • Experiment grouping: • Normal control group; • Positive control group: cyclophosphamide group (100 mg/kg); • Protein YK93-8, (2 g/kg) group. • Method:
Subcutaneous inoculation of B16F10 cell suspension to replicate a mouse melanoma model: Under sterile conditions, the tumor block was removed, ground into tumor fluid, the concentration was adjusted with physiological saline to 2.58×10^6/ml, and 0.2 ml was taken to evenly inoculate subcutaneously on the armpit back of mice. On the next day, the animals were randomly grouped and administration began (recorded as Day 0). CTX (100 mg/kg) was administered once a week, YK-93-8 (2 g/kg) was administered daily, and mice in the normal control group were orally administered an equal volume of sodium carboxymethyl cellulose. On the day of treatment, weight was measured, 20 μL of blood was obtained by taking blood from the eye socket and the blood routine analysis was performed, the tumor block was peeled off, weighed and photographed, and the tumor suppression rate was calculated.
as §1

Another data set relates to Lewis lung cancer. As to the method:
Subcutaneous inoculation of Lewis cell suspension to replicate mouse Lewis lung cancer model: The Lewis tumor tissue was ground into a suspension with a glass homogenizer, the tumor suspension was aspirated with a syringe, the number of live cells was calculated, the concentration of the cells was adjusted to 2.6*10^6/ml with physiological saline, and then the suspension was injected to the left armpit of the mouse with 0.2 ml/mouse. On the next day, the mice were randomly divided into normal control group, cyclophosphamide (100 mg/kg) group, and YK93-8 (0.5 g/kg) group. Cyclophosphamide was injected intraperitoneally for single time, mice in YK93-8 group were given intragastric administration every day for 10 consecutive days, mice in the normal control group were orally given the equal volume of sodium carboxymethyl cellulose. On the day of the treatment, the weight was measured, 20 μl of blood was obtained from the orbital blood and the routine blood analysis was performed. The tumor blocks were stripped, weighed and photographed, and the tumor suppression rate was calculated.
The tumor suppression rate [(The average weight of the tumor in the normal control group—the average weight of the tumor in the experimental group)/The average weight of the tumor in the normal control group×100%] and the average value, standard deviation and standard errors of tumor weight were calculated.

Data set [2] concerns mouse prostatic hyperplasia model. Description: Pharmacodynamic test on mouse prostatic hyperplasia model (propionate testosterone, androgen loading). The conditions noted are these: for Average weight / wet weight of the prostate: 30 days of administration; for prostate index: 30 days, wet weight of the prostate (mg)/body weight (g).
Experimental: Preparation of experimental animals: The experimental animals were adapted to the experimental environment (temperature 22° C.±2° C., relative humidity 50%±2%) for 1 day.
Subcutaneous injection of propionate testosterone to replicate mice prostatic hyperplasia model: Mice were randomly grouped 10 in each group before the model being established. Propionate testosterone (0.01 mg/kg) in soybean oil was injected subcutaneously, once a day for 30 consecutive days. Mice in the normal control group were injected subcutaneously with an equal volume of sodium carboxymethyl cellulose. […] Mice were weighed on the next day. After 30 days of administration, mice were weighed, executed. The prostate was excised through a median incision in the lower abdomen, the wet weight was weighed, and the prostate index was calculated by the wet weight of the prostate (mg)/body weight of the mouse (g).
The average value, standard deviation and standard error of the prostate index in each group were calculated. The data from the groups were compared with each other by T.TEST, and P<0.05 was considered as a significant difference.
The subject of data set [3] is lactation of pregnant mice. Description: Pharmacodynamic test on lactation of pregnant mice. The format is in vivo, female Kunming pregnant mice. The conditions noted are these: 2 g/kg by gavage, 13 days. The protocol: • Animals: female Kunming pregnant mice, weight: 30-50 grams • Drug: YK93-8 • Instruments: electronic balance • Experiment grouping: • Normal control group; • Protein YK93-8, (2 g/kg) group. • Method:
The parturition date of each pregnant mouse was recorded and the mice were randomly divided into normal control group and YK 93-8 group based on the parturition date.
YK93-8 (2 g/kg) was administered by gavage, and the weight and weight gain of the young mice were recorded daily. After 13 days of administration, the female mouse was euthanized using cervical dislocation method, and […] of blood samples were collected from the eye socket, left standing at room temperature for 1-2 hours, centrifuged 1000 g for 20 minutes. The content of prolactin in serum was measured.
The average daily weight gain of young mice (lactation yield of female mice) and serum prolactin content of female mice in each group were calculated.

The mark [4] stands for this setting: 0.1 g/kg intraperitoneally, single time.
[5] abbreviates: 100 mg/kg intraperitoneally, single time, P<0.05.
Where [6] appears, read: 2 g/kg by gavage daily for 13 days.
Where [7] appears, read: 0.5 g/kg intragastric every day for 10 days.

On to `COc1cccc(C2(O)CCCCC2CN(C)C)c1` (stereo not drawn) [Tramadol Hydrochloride], for which the Number of writhing in data set [1] (50 mg/kg) was 0.0 ± 0.00.

As for `O=P1(N(CCCl)CCCl)NCCCO1` (stereo not drawn) [cyclophosphamide, Cyclophosphamide], in the data set on EL-4 lymphoma (setting [4]), the “Tumor suppression (%)” value is recorded as 95.67% and the “Tumor weight” value is listed as 0.12 ± 0.03 g. Also, in the data set with EL-4 lymphoma (setting [5]), the “leukocytes (blood routine test)” value was “significantly reduced”, the “lymphocytes (blood routine test)” value is listed as “significantly reduced”, the “monocytes (blood routine test)” value is recorded as “significantly reduced” and the “neutrophils (blood routine test)” value was “significantly reduced”. For the same molecule, the “Change of weight (g) Before administration” value in the data set on B16F10 melanoma (0.1 g/kg group) is 18.97 ± 0.55 g. Further, in the data set with B16F10 melanoma (0.1 g/kg once a week), the “Change of weight (g) After administration” value stood at 19.07 ± 1.46 g, the “Tumor suppression (%)” value was 85.82% and the “Tumor weight” value is 0.26 ± 0.11 g. In the data set on Lewis lung cancer (0.1 g/kg group), the “Change of weight (g) Before administration” value amounted to 17.60 ± 0.59 g. In the data set on Lewis lung cancer (setting [4]), the “Change of weight (g) After administration” value came out at 19.95 ± 0.77 g, the “Tumor suppression (%)” value stood at 95.35% and the “Tumor weight” value was 0.14 ± 0.09 g.

With `CC(C)(C)NC(=O)[C@H]1CC[C@H]2[C@@H]3CC[C@H]4NC(=O)C=C[C@]4(C)[C@H]3CC[C@]12C` [finasteride], in data set [2] (1 mg/kg orally), the “Average weight” value turned out to be 43.5 ± 3.5 g, the “wet weight of the prostate” value is 31.8 ± 4.8 mg and the prostate index was 0.75 ± 0.12. In data set [2] (3 mg/kg orally), the “Average weight” value is recorded as 40.7 ± 3.1 g, the “wet weight of the prostate” value is reported as 29.2 ± 1.4 mg and the prostate index came out at 0.72 ± 0.08.

B1: YK93-8: keratin with the amino acid sequence shown in SEQ ID NO.1, expressed in Escherichia coli, band around 63 KD; protein of Example 3 (protein, listed as Manis pentadactyla)
chain: MSCRSYRVSSGRQIGNFSSCSAVMPQSLSRFRASSVSCRSGPGFRGLGGFGSRSVIAFGSCPPRMAAVGPRPIRCGVGFSAGSGLAFGLGDSCGAGLGFGTGSGLGYGFGGPGFGYRIGGVGVPAAPSITAVTVNQSLLTPLNLEIDPNAQRVKRDEKEQIKTLNNKFASFIDKVRFLEQQNKLLETKWNFLQDQKGVQSNLEPLFENYVANLRRQLDIVSSDQARLETERNNMQDVLEGFKKKYEEEVVFRANAENEFVALKKDVDAAFLNKSDLEANVDALIQEIDFLKNLYMAEIQLLQSHISDTSVIVKMDNSRDLNFDGIIAEVKAQYEEVARRSRADAEAWYQTKYEEMRMTAGQHSDNLRNTRDEINELTRVIQRLKAEIEHTKAQRAKLEAAIAEAEQQGEAALNDAKCKLADLEAALQQAKQDMARQLREYQELMNIKLALDIEIATYRRLLEGEEIRICEGVGPVNISVSSSRGGVVCGPEPLLTSSTLSRGGVTFSGGSSIRSSGACGLSLGGSRVVAAGGDVLSAGSRGGSVLVGDACAPSIPCPLPTDGGFSSCSGGRSSLGSSVRFVSTTTSRRTKY
For B1, the “Tumor suppression (%)” value was determined as 13.18% in the data set with EL-4 lymphoma (setting [6]), 50.18% in the data set on B16F10 melanoma (2 g/kg daily) and 27.83% in the data set on Lewis lung cancer (setting [7]). In addition, the “Tumor weight” value with EL-4 lymphoma (setting [6]) is reported as 2.44 ± 0.23 g; in the data set on B16F10 melanoma (2 g/kg daily), 0.90 ± 0.41 g; with Lewis lung cancer (setting [7]), 2.16 ± 0.47 g. In addition, the figures for the “Change of weight (g) After administration” value in the data set on B16F10 melanoma (2 g/kg daily) and in the data set on Lewis lung cancer (setting [7]) were 19.78 ± 0.76 g and 21.93 ± 0.93 g, respectively. Besides, the results for the “Change of weight (g) Before administration” value in the data set with B16F10 melanoma (2 g/kg group) and in the data set with Lewis lung cancer (0.5 g/kg group) were 19.20 ± 0.54 g and 17.91 ± 0.26 g, respectively. Besides, in data set [1] (0.5 g/kg by gavage once a day for 7 days), the Number of writhing amounted to 13.76 ± 11.84. Also, the “wet weight of the prostate” value in data set [2] (0.5 g/kg orally) is reported as 44.3 ± 9.3 mg. In data set [2] (0.5 g/kg orally), the prostate index is on record as 1.12 ± 0.20. In addition, the “weight gain of young mice (lactation yield of female mice)” value in data set [3] is “no significant effect”. In addition, the “serum prolactin content in female mouse” value in data set [3] (vs normal control group) is listed as “to some extent increase”.
